Assay results as given in patent US20230102379A1 (priority 2020, published 2023).
“Also recorded” adds a separate entry of the source. Read-outs that look alike come from different tables or passages of the source.

Tests used:
Xylella fastidiosa = type: cell-based; conditions: for diameter of inhibition: highest dose tested (2.12 μmol)
L. crescens [1] = type: cell-based, Liberibacter crescens
Xf = conditions: cited from earlier work
Micrococcus luteus = conditions: cited from earlier work
E. coli [2] = conditions: cited from earlier work
Vibrio harveyi = conditions: cited from earlier work
MRSA = conditions: cited from earlier work
E. coli [3] = conditions: agar diffusion; cited from earlier work
Bacillus megaterium = conditions: agar diffusion; cited from earlier work
[4] = tested on: transcriptional accessory protein; conditions: cited from earlier work
L. crescens [5] = conditions: cited from earlier work

C/C=C/C(=O)n1nnc2ccccc21
melting point: 91 to 93 °C

C/C=C/c1cc2c(c(=O)o1)C(=O)CC(C)O2 (racemic) [Compound 2, (E)-2-methyl-7-(prop-1-en-1-yl)-2,3-dihydropyrano[4,3-b]pyran-4,5-dione]
inhibition of Xf (in words) (Xylella fastidiosa): consistent, somewhat linear relationship between compound dose and antibacterial response; also recorded: more potent than 1; also recorded: potent inhibitor
inhibition of Xf (in words) (Xylella fastidiosa; listed as deoxyradicinin): low micromolar inhibitor
inhibition of L. crescens (in words) (L. crescens [1]): notable linear relationships between compound dose and antibacterial response; also recorded: most potent inhibitor of L. crescens tested; also recorded: potently inhibit; also recorded: potent inhibitor
inhibition of L. crescens (in words) (L. crescens [1]; dose 1.06 μmol and higher): complete inhibition
inhibition of L. crescens (in words) (L. crescens [1]; listed as deoxyradicinin): nanomolar inhibitor
diameter of inhibition (L. crescens [1]; lowest tested dose of 0.053 μmol): 4.0 cm

CCCc1cc2c(c(=O)o1)C(=O)CC(C)O2 (racemic) [Compound 3, 2-methyl-7-propyl-2,3-dihydropyrano[4,3-b]pyran-4,5-dione]
dose at which activity is shown (Xylella fastidiosa): greater than 0.53 μmol
diameter of inhibition (Xylella fastidiosa): 3.4 cm
inhibition of L. crescens (in words) (L. crescens [1]): notable linear relationships between compound dose and antibacterial response

C/C=C/c1cc2c(c(=O)o1)C(=O)C[C@H](C)O2 (single isomer, unassigned) [(−)-2, (−)-deoxyradicinin]
inhibition of L. crescens (in words) (L. crescens [1]): potently inhibit

C/C=C/c1cc2c(c(=O)o1)C(=O)CC(C)O2 (single isomer, unassigned; (+)) [(+)-2, (+)-deoxyradicinin]
inhibition of L. crescens (in words) (L. crescens [1]): potently inhibit

C/C=C/c1cc2c(c(=O)o1)C(=O)[C@@H](O)[C@H](C)O2 [Compound 1, radicinin]
inhibition of Xf (in words) (Xylella fastidiosa): consistent, somewhat linear relationship between compound dose and antibacterial response
diameter of inhibition (Xylella fastidiosa): 10 cm
inhibition of L. crescens (in words) (L. crescens [1]): notable linear relationships between compound dose and antibacterial response
inhibition of Xf in vitro (in words) (Xf): inhibitor of Xf in vitro

C/C=C/C(=O)c1c(O)cc(/C=C/C)oc1=O [Compound 4, 3-((E)-but-2-enoyl)-4-hydroxy-6-((E)-prop-1-en-1-yl)-2H-pyran-2-one]
inhibition of L. crescens (in words) (L. crescens [1]): notable linear relationships between compound dose and antibacterial response

C/C=C/c1cc(O)cc(=O)o1 [Compound 5, (E)-4-hydroxy-6-(prop-1-en-1-yl)-2H-pyran-2-one]
melting point: 183 to 185 °C
inhibition of Xf (in words) (Xylella fastidiosa): inactive
diameter of inhibition (L. crescens [1]; highest dose): 2.6 cm
diameter of inhibition (L. crescens [1]; lower doses): 0.2 cm

O=C1CCC(c2ccc(O)c3c2C(=O)C2OC2C3O)c2cccc(O)c21 (stereo not shown) [Compound 21, cladosporol A]
antibacterial activity (in words) (Micrococcus luteus): modest antibacterial activity
antibacterial activity (in words) (E. coli [2]): modest antibacterial activity
antibacterial activity (in words) (Vibrio harveyi): modest antibacterial activity
antibacterial activity (in words) (MRSA): modest antibacterial activity

CC(CCCCCCCCCCCCCCO[C@@H]1O[C@H](CO)[C@@H](O)[C@H](O)[C@@H]1O)C(O)=C1C(=O)C(C)N(C)C1=O (stereo partly shown) [Compound 24, epicoccamide A]
antibiotic activity (in words) (E. coli [3]): no detectable antibiotic activity
antibacterial activity (in words) (Micrococcus luteus): modest antibacterial activity
antibacterial activity (in words) (E. coli [2]): modest antibacterial activity
antibacterial activity (in words) (Vibrio harveyi): modest antibacterial activity
antibacterial activity (in words) (MRSA): modest antibacterial activity
antibiotic activity (in words) (Bacillus megaterium): no detectable antibiotic activity

Cc1c(Cl)cccc1Nc1ccccc1C(=O)O [Tolfenamic acid]
inhibition of transcriptional accessory protein (in words) [4]: inhibits a transcriptional accessory protein

CO/N=C(\C(=O)N[C@@H]1C(=O)N2C(C(=O)O)=C(COC(C)=O)CS[C@H]12)c1csc(N)n1 [cefotaxime]
concentration providing nearly complete inhibition of L. crescens (L. crescens [5]): 0.7 µM

CC1(C)S[C@@H]2[C@H](NC(=O)COc3ccccc3)C(=O)N2[C@H]1C(=O)O [penicillin V]
concentration providing nearly complete inhibition of L. crescens (L. crescens [5]): 0.1 µM
